# According to patent US20020091148A1, “3-substituted indole antiproliferative angiogenesis inhibitors” (priority 2000, published 2002):
# Test system: certain tumor models
# Conditions: Adv. Cancer Res. 2000, 79, 1-38; cited from earlier work
row,Compound,in vivo activity against certain tumor models
1,Cc1cc(C)c(/C=C2\C(=O)Nc3ccccc32)[nH]1 [SU5416],good in vivo activity

# Test system: not given
# Conditions: not given
row,Compound,melting point
1,"CN(N=Cc1ccc(C#N)cc1)C(=O)c1[nH]c2ccccc2c1-c1ccccc1 [Example 150, N′-((4-cyanophenyl)methylidene)-N-methyl-3-phenyl-1H-indole-2-carbohydrazide]",194 to 196 °C
2,"CN(N=Cc1cnc[nH]1)C(=O)c1[nH]c2ccccc2c1-c1ccccc1 [Example 152, N′-(1H-imidazol-5-ylmethylidene)-N-methyl-3-phenyl-1H-indole-2-carbohydrazide]",248 to 250 °C
3,"CN(C)C(=O)c1c(C(=O)NN=Cc2ccc3ccccc3c2)[nH]c2ccccc12 [Example 136, N,N-dimethyl-2-((2-(2-naphthylmethylene)hydrazino)carbonyl)-1H-indole-3-carboxamide]",256 to 260 °C
4,"CN(N=Cc1ccco1)C(=O)c1[nH]c2ccccc2c1-c1ccccc1 [Example 149, N′-(2-furylmethylidene)-N-methyl-3-phenyl-1H-indole-2-carbohydrazide]",196 to 199 °C
5,"CSc1c(C(=O)NN=Cc2nccs2)[nH]c2ccccc12 [Example 109, 3-(methylthio)-N′-(1,3-thiazol-2-ylmethylidene)-1H-indole-2-carbohydrazide]",216 to 222 °C
6,"CN(N=Cc1ccc(Br)cc1)C(=O)c1[nH]c2ccccc2c1-c1ccccc1 [Example 151, N′-((4-bromophenyl)methylidene)-N-methyl-3-phenyl-1H-indole-2-carbohydrazide]",210 to 212 °C
7,"O=C(NN=Cc1ccc(Cl)cc1)c1[nH]c2ccccc2c1C(=O)Nc1ccccc1 [Example 107, 2-((2-(4-chlorobenzylidene)hydrazino)carbonyl)-N-phenyl-1H-indole-3-carboxamide]",> 260 °C
8,"O=C(NN=Cc1ccc(Br)cc1)c1[nH]c2ccccc2c1Cc1ccccc1 [Example 104, 3-benzyl-N′-((4-bromophenyl)methylidene)-1H-indole-2-carbohydrazide]",227 to 229 °C
9,"CS(=O)(=O)c1c(C(=O)NN=Cc2cccc3ccccc23)[nH]c2ccccc12 [Example 135, 3-(methylsulfonyl)-N′-(1-naphthylmethylidene)-1H-indole-2-carbohydrazide]",> 250 °C
10,"CS(=O)(=O)c1c(C(=O)NN=Cc2nccs2)[nH]c2ccccc12 [Example 111, 3-(methylsulfonyl)-N′-(1,3-thiazol-2-ylmethylidene)-1H-indole-2-carbohydrazide]",> 280 °C

# Now from value to molecule:
row,melting point,Compound
1,221 to 222 °C,"O=C(NN=Cc1ccc(Cl)cc1)c1[nH]c2ccccc2c1Cc1ccccc1 [Example 103, 3-benzyl-N′-((4-chlorophenyl)methylidene)-1H-indole-2-carbohydrazide]"
2,> 280 °C,"CS(=O)(=O)c1c(C(=O)NN=Cc2ccc(Cl)cc2)[nH]c2ccccc12 [Example 110, N′-((4-chlorophenyl)methylidene)-3-(methylsulfonyl)-1H-indole-2-carbohydrazide]"
3,249 to 251 °C,"COc1c(C(=O)NN=Cc2ccc(Cl)cc2)[nH]c2ccccc12 [Example 118, N′-((4-chlorophenyl)methylidene)-3-methoxy-1H-indole-2-carbohydrazide]"
4,232 to 235 °C,"CSc1c(C(=O)NN=Cc2ccc(Cl)cc2)[nH]c2ccccc12 [Example 108, N′-((4-chlorophenyl)methylidene)-3-(methylthio)-1H-indole-2-carbohydrazide]"
5,> 250 °C,"O=C(NN=Cc1ccc(Cl)cc1)c1[nH]c2ccccc2c1Br [Example 119, 3-bromo-N′-((4-chlorophenyl)methylidene)-1H-indole-2-carbohydrazide]"
6,255 to 257 °C,"CCN(CC)C(=O)c1c(C(=O)NN=Cc2ccc(Cl)cc2)[nH]c2ccccc12 [Example 105, 2-((2-(4-chlorobenzylidene)hydrazino)carbonyl)-N,N-diethyl-1H-indole-3-carboxamide]"
